Reference: patent US20220354894A1, “Cell Composition Comprising Radiolabled Mesenchymal Stem Cells, Use Thereof and Method for Preparing Radiolabeled Mesenchymal Stem Cells” (Boehringer Ingelheim Veterinary Medicine Belgium, priority 2019, published 2022)

Tests used:
[1] = Whole body scintigraphy biodistribution after IV, IM, SC injection in dogs (Example 4); type: in vivo; details: dog
Description: Three different studies were performed. In a first study, the biodistribution of intravenously administrated equine peripheral blood-derived MSCs (ePB-MSCs) was evaluated in four dogs. In the second study, the biodistribution of intramuscularly and subcutaneously administrated ePB-MSCs was evaluated in four dogs. Finally, in a third study, the biodistribution of a higher dose of ePB-MSCs following intravenous administration was evaluated in three dogs.
Four healthy adult research dogs were included in the two first studies; three dogs from the second study were re-used for the third study. All dogs were purpose bred adult beagles (16-23 months). Two males and two females were included in the first two studies and one male and two female dogs were included in the third study. The dogs were housed in groups of 2, in a pen of 4 by 4 by 2 m (L×W×H) so permanent visual, olfactorial, tactile and auditive contact between dogs was possible. Toys were provided for the dogs to play with in their pen. Cleaning of the dog pens was performed daily. The floor was covered with wood shavings to improve lying comfort for the dogs. The animals were let out in dog runs to play and run for minimal 1 hour a day. After the study this minimal time was increased depending on the need of the dogs.
In the first study, each dog received two intravenous injections; first the dogs were injected with the control product: freshly eluted ^99mTc dissolved in DMEM and at least 7 days later they received a second injection with ^99mTc-labeled ePB-MSCs. For the second study, 4 injections were administered to each dog. The dogs first received an IM injection with the control product, next a SC with the control product, then an IM injection with the ^99mTc-labeled ePB-MSCs and finally a SC administration of the ^99mTc-labeled ePB-MSCs. At least 7 days separated each injection. In the third study, the three dogs received a single IV injection with ^99mTc-labeled ePB-MSCs.
The dogs were put under general anesthesia and positioned in sternal recumbency on the gamma camera before each injection. To obtain general anesthesia, the dogs were first sedated with dexmedetomidine (12-25 μg/kg IM), next induction was obtained with propofol (dosage on effect) and anesthesia was maintained with isoflurane 1.2-1.4% (on effect) in 100% oxygen following endotracheal intubation. The intravenous injection was administered through a 22-gauge catheter in one of the cephalic veins, the intramuscular injection was performed in the left quadriceps muscle and the subcutaneous injection was administered at the back of the neck.
A two-headed gamma camera, equipped with low energy high resolution collimators (GCA 7200 A; Toshiba) was used for the scintigraphic investigation. The whole body scan was obtained with the detectors of the SPECT scanner moving simultaneous dorsally and ventrally from head to tail of the dog over 10 minutes. All dogs were kept under general anesthesia during all the acquisitions. For all 3 studies, data collection of the first hour consisted of 6 successive acquisitions of each 10 minutes. The start of the first acquisition was simultaneous with injection of the radioactive compound and the dog remained in the same position for all 6 scans. Next, in the first study, total body scans (each lasting 10 minutes) were performed at 2 h, 4 h, 8 h, 12 h, 24 h and 36 h after placebo control and labeled ePB-MSCs administration using propofol (dosage on effect). For the second and the third study, 6 successive 10 minutes' total body scans performed during the first hour after injection were followed by total body scans (each lasting 10 minutes) at 6 h and 24 h after each injection. For all studies, a syringe with a known amount of radioactivity to calculate % injected dose (ID), was simultaneous scanned with the dog. Care was taken for the dog's re-positioning on the table, to avoid too much spatial deviation on the scans following the first hour scans. […]

[2] = Planar scintigraphy biodistribution after IV injection in healthy horses (Example 6); type: in vivo; details: horse
Text: Four healthy adult horses (2 neutered male and 2 female horses, 7 to 19 years old) from two different breeds (2 Belgian warmblood and 2 French Trotter) were included in this study. All animals underwent a full veterinary examination before being included in the study and were stalled at least 2 days prior to the start of the study. During the study, the animals were housed in individual stables of 3.5 by 4 (L×W) according to normal housing procedures with water ad libitum and hay twice a day. During the study, a daily general clinical examination was performed (day 0-3). All horses received a total of two IV injections; the first consisted of free ^99mTc dissolved in DMEM which served as control. The second injection was administered three days later and consisted of ^99mTc-labelled ePB-MSC.
For the IV injections of the horses, a 18 G catheter was placed in the left jugular vein of each horse and sedation was achieved using detomidine hydrochloride (Domidine 10 mg/mL; Dechra, The Netherlands) 0.01 mg/kg body weight and butorphanol tartrate (butomidor 10 mg/mL; AST farma BV, Oudewater, Germany) 0.01 mg/kg body weight IV When required, detomidine hydrochloride (Domidine 10 mg/mL; Dechra) was added during the scan with a maximum of 0.002 mg/kg. The horses stood straight with all four limbs using a table to stabilize the head. On day 0, all four horses were IV injected with free ^99mTc dissolved in DMEM. Consequently, on day 3, all horses were IV injected with ^99mTc-labelled ePB-MSCs dissolved in DMEM as described above. Planar scintigraphy was performed 1 h and 6 h post-injection for both injections using a gamma camera (Equine HR, Medical Imaging Electronics) (matrix: 128×128; acquisition time: 60 seconds per time frame (60 frames); collimator: low energy high resolution (140 KeV, 15% symmetrical window); field of view: 600×410 mm). Following body parts were scanned: head, thorax and abdomen starting with the head, left thorax and left abdomen and continuing with the right abdomen and right thorax.
Distribution of the ^99mTc labelled ePB-MSCs and free ^99mTc was subjectively assessed through the whole body using Multimodality software (Nuclear diagnostics, Sweden). Different organs of interests were manually delineated for each horse at each time point: the lungs, bladder, stomach, kidney, parotid gland and thyroid. Radioactive counts per pixel were calculated for each organ of interest, decay corrected and divided by the initial injected radioactivity in the whole body to obtain a relative uptake value.

## [O]=[99Tc](=[O])(=[O])[O-] [control product, ^99mTc Pertechnetate]
[1]; IM, 10 min
  percentage of injected dose at injection site: 29.49%
  percentage of injected dose in bladder: 0.13%
  percentage of injected dose in heart: 0.45%
  percentage of injected dose in left salivary gland: 0.02%
  percentage of injected dose in lung: 1.06%
  percentage of injected dose in right salivary gland: 0.01%
  percentage of injected dose in stomach: 1.62%
  percentage of injected dose in thyroid: 0.05%
[1]; IM, 60 min
  percentage of injected dose at injection site: 3.63%
  percentage of injected dose in bladder: 3.51%
  percentage of injected dose in heart: 2.46%
  percentage of injected dose in left salivary gland: 1.03%
  percentage of injected dose in lung: 6.92%
  percentage of injected dose in right salivary gland: 0.99%
  percentage of injected dose in stomach: 17.36%
  percentage of injected dose in thyroid: 1.10%
[1]; IM, 6 hours
  percentage of injected dose at injection site: 0.19%
  percentage of injected dose in bladder: 4.77%
  percentage of injected dose in heart: 1.45%
  percentage of injected dose in left salivary gland: 1.84%
  percentage of injected dose in lung: 4.41%
  percentage of injected dose in right salivary gland: 1.60%
  percentage of injected dose in stomach: 17.25%
  percentage of injected dose in thyroid: 1.15%
[1]; IM, 24 hours
  percentage of injected dose at injection site: 0.12%
  percentage of injected dose in bladder: 5.08%
  percentage of injected dose in heart: 0.69%
  percentage of injected dose in left salivary gland: 2.47%
  percentage of injected dose in lung: 2.14%
  percentage of injected dose in right salivary gland: 2.09%
  percentage of injected dose in stomach: 9.36%
  percentage of injected dose in thyroid: 0.57%
[1]; IV, 10 min
  percentage of injected dose in bladder: 0.63%
  percentage of injected dose in heart: 2.79%
  percentage of injected dose in left salivary gland: 0.33%
  percentage of injected dose in liver: 2.93%
  percentage of injected dose in lung: 3.73%
  percentage of injected dose in right salivary gland: 0.33%
  percentage of injected dose in stomach: 4.84%
  percentage of injected dose in thyroid: 0.41%
[1]; IV, 60 min
  percentage of injected dose in bladder: 1.93%
  percentage of injected dose in heart: 1.61%
  percentage of injected dose in left salivary gland: 0.77%
  percentage of injected dose in liver: 2.07%
  percentage of injected dose in lung: 2.62%
  percentage of injected dose in right salivary gland: 0.72%
  percentage of injected dose in stomach: 9.77%
  percentage of injected dose in thyroid: 0.61%
[1]; IV, 6 hours
  percentage of injected dose in bladder: 2.42%
  percentage of injected dose in heart: 1.45%
  percentage of injected dose in left salivary gland: 1.31%
  percentage of injected dose in liver: 1.73%
  percentage of injected dose in lung: 1.97%
  percentage of injected dose in right salivary gland: 0.88%
  percentage of injected dose in stomach: 8.98%
  percentage of injected dose in thyroid: 0.61%
[1]; IV, 24 hours
  percentage of injected dose in bladder: 2.71%
  percentage of injected dose in heart: 0.54%
  percentage of injected dose in left salivary gland: 1.34%
  percentage of injected dose in liver: 0.99%
  percentage of injected dose in lung: 0.77%
  percentage of injected dose in right salivary gland: 0.98%
  percentage of injected dose in stomach: 5.02%
  percentage of injected dose in thyroid: 0.24%
[1]; SC, 10 min
  percentage of injected dose at injection site: 27.27%
  percentage of injected dose in bladder: 0.13%
  percentage of injected dose in heart: 0.24%
  percentage of injected dose in left salivary gland: 0.12%
  percentage of injected dose in lung: 0.92%
  percentage of injected dose in right salivary gland: 0.13%
  percentage of injected dose in stomach: 0.53%
  percentage of injected dose in thyroid: 0.00%
[1]; SC, 60 min
  percentage of injected dose at injection site: 17.57%
  percentage of injected dose in bladder: 2.29%
  percentage of injected dose in heart: 1.61%
  percentage of injected dose in left salivary gland: 0.45%
  percentage of injected dose in lung: 4.86%
  percentage of injected dose in right salivary gland: 0.45%
  percentage of injected dose in stomach: 9.24%
  percentage of injected dose in thyroid: 0.00%
[1]; SC, 6 hours
  percentage of injected dose at injection site: 0.00%
  percentage of injected dose in bladder: 2.75%
  percentage of injected dose in heart: 1.61%
  percentage of injected dose in left salivary gland: 1.44%
  percentage of injected dose in lung: 4.57%
  percentage of injected dose in right salivary gland: 1.33%
  percentage of injected dose in stomach: 14.37%
  percentage of injected dose in thyroid: 0.96%
[1]; SC, 24 hours
  percentage of injected dose at injection site: 0.00%
  percentage of injected dose in bladder: 3.75%
  percentage of injected dose in heart: 0.70%
  percentage of injected dose in left salivary gland: 2.67%
  percentage of injected dose in lung: 2.01%
  percentage of injected dose in right salivary gland: 2.81%
  percentage of injected dose in stomach: 7.32%
  percentage of injected dose in thyroid: 0.61%
[1]; all three injection routes, progressive increase until 4 to 6 hours
  organ with the highest uptake: stomach
[1]; intramuscular and subcutaneous administration
  organs with radioactivity uptake: heart, lung, stomach, bladder, thyroid and salivary glands
[1]; intravenous injection
  organs in which radioactivity accumulated: heart, lung, liver, stomach, bladder, thyroid and salivary glands
[2]
  radioactivity in the intestines: small activity
[2]; 1 h and 6 h post-injection
  accumulation in the kidneys: no kidney accumulation
  accumulation in the stomach: High accumulation
  radioactivity in the bladder: accumulation was higher
  uptake in the lungs: distinct radioactive uptake
  uptake in the parotid glands: high uptake
  uptake in the thyroid gland: very high accumulation
[2]; 1 h post-injection scans
  organs in which accumulation was predominantly observed: stomach, thyroid, bladder and parotid glands
